From ChEMBL document CHEMBL1201862, “PubChem BioAssay data set” (2004) come the findings set out here.

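Following 48 hours of exposure in 96-well plates, responses at five concentrations were used to interpolate endpoints linearly. Abbreviation: GI50, concentration required for 50% inhibition of growth.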 Active and inactive are the calls of the source. Cut-off read from the data, not from the text of the source: active = GI50 up to about 1.1 µM and inactive = higher.

Among the test systems are T47D; Malme-3M; HCT-15; A549; SK-OV-3; K562; UACC-62; NCI-H226; SR; M14; NCI-H522; Hs-578T; UO-31; COLO 205; PC-3; MOLT-4; HCT-116; U-251; OVCAR-3.
Holding throughout (experiment): NCI anticancer screen, dose series, 48 h

On to `COc1ccc(C2SC(=N)Nc3c2c(C)nn3C(=O)Cc2ccccc2)cc1` (configuration not stated), for which the GI50 in the test with T47D was > 100 µM (inactive); in the test on Malme-3M it was > 100 µM (inactive); in the test on HCT-15, above 100 µM; with A549, > 100 µM (inactive); with SK-OV-3, > 100 µM (inactive); in the test with K562, > 100 µM (inactive). The GI50 in the test on UACC-62, with NCI-H226, with SR, with M14, with NCI-H522 and in the test with Hs-578T was > 100 µM (inactive) each time. In addition, the GI50 with UO-31, in the test with COLO 205, in the test with PC-3, in the test with MOLT-4 and with HCT-116 was > 100 µM (inactive) in each case.
On to `Cc1cc2c3c(nc4ccccc42)C(=O)c2ccccc2-c3n1`, for which the GI50 is 12.7 µM (inactive) with T47D; 1.35 µM with HCT-15; 7.1 µM (inactive) in the test with A549; 14.8 µM (inactive) in the test with SK-OV-3; 16.1 µM (inactive) in the test with U-251; 0.839 µM (active) in the test on K562. The GI50 is 1.8 µM (inactive) in the test on UACC-62; 21 µM (inactive) in the test with NCI-H226; 1.79 µM (inactive) in the test on SR; 4.44 µM (inactive) in the test on M14; 1.68 µM (inactive) with NCI-H522; 13.4 µM (inactive) with Hs-578T. Moreover, the GI50 in the test on UO-31 was 10.5 µM (inactive); in the test with COLO 205, 16.8 µM (inactive); in the test on PC-3, 0.851 µM (active); with OVCAR-3, 0.135 µM (active); in the test with MOLT-4 it was 3.34 µM (inactive); in the test on HCT-116, 8.59 µM (inactive).
As for `O=C1C=Cc2c(Br)sc(Br)c21`, the GI50 with T47D was 34 µM (inactive); in the test with Malme-3M it was 23.1 µM (inactive); in the test with HCT-15, 26.2 µM; in the test with A549, 55.1 µM (inactive); in the test on SK-OV-3 it was 88.1 µM (inactive); in the test on U-251, 18.5 µM (inactive). Also, the GI50 in the test with K562 was 23 µM (inactive); with UACC-62, 23.7 µM (inactive); with SR, 24.7 µM (inactive); with M14, 25.9 µM (inactive); with NCI-H522, 26.1 µM (inactive); with Hs-578T, 29.2 µM (inactive). For the same molecule, the GI50 in the test with UO-31 was 17.7 µM (inactive); in the test on COLO 205 it was 34.2 µM (inactive); in the test with PC-3 it was 19.7 µM (inactive); in the test with OVCAR-3 it was 15.8 µM (inactive); in the test on MOLT-4, 13.5 µM (inactive); with HCT-116, 29.1 µM (inactive).
Turning to `Cc1nc2c(sc3nc4ccccc4n32)c(=O)[nH]1`, the GI50 in the test on T47D was > 100 µM (inactive); in the test with Malme-3M, > 100 µM (inactive); in the test on HCT-15, above 100 µM; in the test with A549 it was > 100 µM (inactive); in the test on SK-OV-3 it was 73.1 µM (inactive); with U-251 it was > 100 µM (inactive). In addition, the GI50 with UACC-62, in the test with NCI-H226, in the test with SR, in the test on M14, in the test with NCI-H522 and in the test with Hs-578T was > 100 µM (inactive) throughout. The GI50 in the test with UO-31, in the test on COLO 205, in the test on PC-3, with OVCAR-3, in the test on MOLT-4 and in the test with HCT-116 was > 100 µM (inactive) each time.
With `C[C@@]12[C@H]3CC[C@@H]1[C@H](O)C(=O)N2CC3`, the GI50 with T47D is > 100 µM (inactive); in the test with Malme-3M, > 100 µM (inactive); in the test with HCT-15, above 100 µM; with A549 it was > 100 µM (inactive); with SK-OV-3 it was > 100 µM (inactive); with U-251, > 100 µM (inactive). The GI50 in the test on K562, with UACC-62, in the test with NCI-H226, with SR, in the test with M14 and in the test on NCI-H522 was > 100 µM (inactive) each time. In addition, the GI50 with Hs-578T, in the test on UO-31, in the test on COLO 205, in the test with PC-3, with OVCAR-3 and in the test on MOLT-4 was > 100 µM (inactive) throughout.
As to `CCOC(=O)CCC(NC(=O)OCc1ccccc1)C(=O)NC(CCC(=O)OCC)C(=O)NC(CCC(=O)OCC)C(=O)NC(CCC(=O)OCC)C(=O)NC(CCC(=O)OCC)C(=O)OCC` (configuration not stated), the GI50 with T47D was > 100 µM (inactive); in the test with Malme-3M it was > 100 µM (inactive); in the test with HCT-15 it was above 100 µM; in the test on A549, > 100 µM (inactive); with SK-OV-3, > 100 µM (inactive); with U-251 it was > 100 µM (inactive). For the same molecule, the GI50 with UACC-62, in the test on SR, in the test on M14, with NCI-H522, with Hs-578T and with UO-31 was > 100 µM (inactive) each time. Besides, the GI50 in the test on COLO 205, in the test on PC-3, in the test with MOLT-4 and in the test on HCT-116 was > 100 µM (inactive) throughout.
For the molecule `O=C(NC(CCCCN1C(=O)c2ccccc2C1=O)P(=O)(Oc1ccccc1)Oc1ccccc1)OCc1ccccc1` (configuration not stated), the GI50 in the test with T47D is > 100 µM (inactive); with Malme-3M, > 100 µM (inactive); in the test on HCT-15, above 10 µM; in the test with A549, > 100 µM (inactive); with SK-OV-3, > 100 µM (inactive); with U-251, > 100 µM (inactive). In addition, the GI50 in the test with UACC-62 was > 100 µM (inactive); in the test with NCI-H226, > 100 µM (inactive); with SR, > 100 µM (inactive); with M14, > 100 µM (inactive); in the test with NCI-H522, 75 µM (inactive); with Hs-578T, > 100 µM (inactive). Further, the GI50 with UO-31, with COLO 205, with PC-3 and in the test on OVCAR-3 was > 100 µM (inactive) throughout.
Consider `C[C@@H]1CC[C@@]2(C)C(C(=O)O)=CCCC2[C@@]1(C)CC(=O)c1ccoc1` (some centres not stated), for which the GI50 in the test with T47D is > 25 µM (inactive); in the test on HCT-15, above 25 µM; in the test with A549, > 25 µM (inactive); in the test with SK-OV-3 it was > 25 µM (inactive); in the test with U-251, > 25 µM (inactive); in the test on UACC-62 it was > 25 µM (inactive). For the same molecule, the GI50 in the test with NCI-H226, in the test on SR, in the test with M14, in the test with NCI-H522, with Hs-578T and in the test on UO-31 was > 25 µM (inactive) throughout. Moreover, the GI50 in the test on COLO 205, in the test on PC-3, with OVCAR-3, in the test on MOLT-4 and in the test with HCT-116 was > 25 µM (inactive) in each case.
Take `C=C(C)[C@@H]1CC[C@]2(C)CC[C@]3(C)[C@H](CC[C@@H]4[C@@]5(C)CC[C@H](O)C(C)(C)[C@@H]5CC[C@]43C)[C@@H]12` [LUPEOL]: the GI50 in the test with T47D is > 100 µM (inactive); in the test with Malme-3M it was > 89.3 µM (inactive); with HCT-15, above 70.1 µM; in the test on A549, > 62.7 µM (inactive); in the test with U-251, 21.9 µM (inactive); in the test on K562 it was > 46 µM (inactive). In addition, the GI50 in the test with UACC-62 is > 100 µM (inactive); in the test on NCI-H226, > 50.4 µM (inactive); in the test with SR it was 42.8 µM (inactive); with M14 it was > 94.6 µM (inactive); in the test with NCI-H522, 23.8 µM (inactive); with Hs-578T, 25.6 µM (inactive). For the same molecule, the GI50 with UO-31 was > 47.8 µM (inactive); with COLO 205, > 100 µM (inactive); in the test with PC-3, 32.3 µM (inactive); in the test with OVCAR-3, > 55.1 µM (inactive); with MOLT-4, 27.5 µM (inactive); in the test with HCT-116 it was 44.5 µM (inactive).
Consider `O=c1[nH]nc(Cc2ccc([N+](=O)[O-])cc2)[nH]1`, for which the GI50 is > 100 µM (inactive) in the test on T47D; > 100 µM (inactive) in the test on Malme-3M; above 100 µM with HCT-15; > 100 µM (inactive) in the test on A549; > 100 µM (inactive) in the test on U-251; > 100 µM (inactive) in the test with K562. Moreover, the GI50 is > 100 µM (inactive) in the test with UACC-62; > 100 µM (inactive) in the test on NCI-H226; > 100 µM (inactive) in the test with SR; > 100 µM (inactive) in the test with M14; > 100 µM (inactive) with NCI-H522; 75 µM (inactive) in the test with Hs-578T. Also, the GI50 in the test with UO-31 is 52.5 µM (inactive); with COLO 205, > 100 µM (inactive); in the test with PC-3, > 100 µM (inactive); in the test with OVCAR-3, > 100 µM (inactive); in the test on MOLT-4, > 100 µM (inactive); with HCT-116, > 100 µM (inactive).
Turning to `CC(Cc1ccc(O)cc1)NCC(O)c1ccc(O)c(O)c1` (configuration not stated), the GI50 in the test with T47D was > 100 µM (inactive); with Malme-3M, > 100 µM (inactive); in the test with HCT-15 it was above 100 µM; in the test with A549 it was > 100 µM (inactive); in the test with SK-OV-3, > 100 µM (inactive); in the test on U-251, > 100 µM (inactive). In addition, the GI50 is > 100 µM (inactive) with K562; > 100 µM (inactive) in the test on UACC-62; > 100 µM (inactive) in the test on NCI-H226; 88.3 µM (inactive) in the test on SR; > 100 µM (inactive) with M14; > 100 µM (inactive) with NCI-H522. Also, the GI50 in the test with Hs-578T was > 100 µM (inactive); with UO-31, > 100 µM (inactive); in the test on PC-3, > 100 µM (inactive); in the test with OVCAR-3 it was 81.7 µM (inactive); in the test on MOLT-4 it was 73.5 µM (inactive); in the test on HCT-116, > 100 µM (inactive).
